5 compounds from US5444073A, “Method for treating memory impairment” (H. Lundbeck A/S, priority 1991, dated 1995) can be followed below.

The data set can be described thus: Catalepsy test (rat on a vertical wire mesh, s.c.). To be noted: Cataleptic Activity, maximum within the first 6 hours. Here is the method: Test compound is given s.c. in different doses. The rat (170-240 g) is placed on a vertical wire mesh (mesh-diameter 12 mm). The rat is considered cataleptic if it remains immobile for more than 15 sec. The maximum number of rats showing catalepsy within the first 6 hours is recorded for each dose group. The results are recorded in fractions and an ED50 value is calculated by means of log-probit analysis.
Take “5-Chloro-1-(4-fluorophenyl)-3-[1-[2-(2-imidazolidinon-1-yl)ethyl]-1,2,3,6-tetrahydropyridin-4-yl]-5-trifluoromethyl-1H-indole [Comp. B]”: the “ED50(s.c.)” value was found to be 2.2 µmol/kg.
As for “5-Chloro-1-(4-fluorophenyl)-3-[4-[2-(2-imidazolidinon-1-yl)ethyl]-12,3,6-tetrahydropyridin-4-yl]-5-trifluoromethyl-1H-indole [Comp. C]”, the “ED50(s.c.)” value came to 4.5 µmol/kg.
As for `O=C1NCCN1CCN1CC=C(c2cn(-c3ccc(F)cc3)c3ccc(C(F)(F)F)cc23)CC1` [Comp. A, 1-(4-Fluorophenyl)-3-[1-[2-(2-imidazolidinon-1-yl)ethyl]-1,2,3,6-tetrahydropyridin-4-yl]-5-trifluoromethyl-1H-indole], the figure is 0.49 µmol/kg; as for `CN1CCN(CCN2CCC(c3cn(-c4ccc(F)cc4)c4ccc(Cl)cc34)CC2)C1=O.O=C(O)/C=C/C(=O)O` [Comp. No 3, 5-chloro-1-(4-fluorophenyl)-3-[1-[2-(3-methyl-2-imidazolidinon-1-yl)ethyl]4-piperidyl]-1H-indole, fumarate], 31 µmol/kg; as for `O=C(O)/C=C/C(=O)O.O=C1CCCN1CCN1CCC(c2cn(-c3ccc(F)cc3)c3ccc(Cl)cc23)CC1` [Comp. No 4, 5-chloro-1-(4-fluorophenyl)-3-[1-[2-(2-pyrrolidinon-1-yl)ethyl]-4-piperidyl]-1H-indole, fumarate], 23 µmol/kg.
